According to US20020028193A1, “Recombinant beta2-adrenergic receptor delivery and use in treating airway and vascular diseases” (priority 2000, published 2002):
Where “and” joins values, the source holds several entries; their conditions need not be identical. Equal entries are not always repeated.

Legend:
[1] = test system: β2AR-luciferase fusion genes; assay: Dexamethasone induction of β2AR-luciferase fusion genes transiently transfected into HepG2 cells; type: cell-based, human; conditions: pβ2AR(−643/+126); 0.1 μM dexamethasone, 8 hrs
Method: HepG2 cells were transiently transfected with pRShGRα, pRSVβ-ga1, and either pβ2AR(−62/+126), pβ2AR(−152/+126), pβ2AR(−643/+126), pβ2AR(−1115/+126), pβ2AR(−2552/+126), pβ2AR(−3129/+126), or N-600 prATLUC. Transfected cells were incubated for 48 hours prior to addition of dexamethasone. Luciferase activity for each construct is expressed relative to that obtained with pβ2AR(−62/+126) in the absence of dexamethasone.
Human HepG2 cells were transiently transfected with pRShGRα, pRSVβ-gal, and either pβ2AR(−3129/+126) or pβ2ARm1 (−3129/+126) as described in the specification. After transfection, the cells were incubated for 8 hours in either the absence or presence of 0.1 μM dexamethasone and cells were harvested. Values are means±S.E. of data from five independent experiments, each performed in triplicate. Asterisks indicate a significant (p<0.05) difference in luciferase activity from untreated and dexamethasone-treated cells as determined by Student's t-test.
In order to determine whether the six putative GREs were functional, six β2AR-luciferase fusion gene deletion mutants were generated. […] To test the effect of dexamethasone on expression of the truncated β2AR-luciferase fusion genes, HepG2 cells transfected with each of the six fusion genes were incubated with either vehicle or 0.1 μM dexamethasone for 8 hrs, and luciferase activity was determined. […]

GRE-pT81LUC fusion genes = assay: Dexamethasone induction of putative GREs fused to heterologous thymidine kinase promoter (pT81LUC) in HepG2 cells; type: cell-based, human; conditions: 0.1 μM dexamethasone
Method: Plasmid constructs with the luciferase gene under the control of the tk promoter and various putative GREs (see FIG. 8 for sequences) were tested for luciferase activity after transfection into HepG2 cells that were co-transfected with pRShGRα. Transfected cells were incubated for 48 hours prior to addition of 0.1 μM dexamethasone.
To further examine the functionality of the putative glucocorticoid response elements, fragments containing either GRE1, GRE5, or GRE2, GRE3 and GRE4 together were fused to pT81LUC, a luciferase expression plasmid driven by a minimal thymidine kinase promoter.^102 Sequences of the double stranded oligonucleotides containing GRE1, GRE5 and the MMTV GRE are shown in FIG. 10. […] Activity of GRE5-pT81LUC was induced 3.2-fold in the presence of 0.1 μM dexamethasone (FIG. 12), a value that was higher than that observed with any of the β2AR-luciferase fusion genes that included GRE5. Activity of GRE1-pT81LUC was not induced by 0.1 μM dexamethasone (FIG. 12). […] This level of fold-induction was similar to that obtained with MMTVsequence fused to pT81LUC.

[2] = test system: β2AR-luciferase fusion genes; assay: Dexamethasone induction of β2AR-luciferase fusion genes in transiently transfected SPOC1 cells; type: cell-based, rat; conditions: pβ2AR(−3129/+126) in SPOC1 cells; 0.1 μM dexamethasone, 8 hrs
mucociliary clearance = conditions: inhaled, humans, controls and asthmatic individuals; cited from earlier work
[3] = target: glucocorticoid receptor alpha (expressed from pRShGRalpha) (Homo sapiens) (UniProt P04150); assay: cell_activity; conditions: MMTV-pT81LUC in HepG2, 0.1 uM dexamethasone
Chain of glucocorticoid receptor alpha (expressed from pRShGRalpha) (Homo sapiens) (P04150 whole entry): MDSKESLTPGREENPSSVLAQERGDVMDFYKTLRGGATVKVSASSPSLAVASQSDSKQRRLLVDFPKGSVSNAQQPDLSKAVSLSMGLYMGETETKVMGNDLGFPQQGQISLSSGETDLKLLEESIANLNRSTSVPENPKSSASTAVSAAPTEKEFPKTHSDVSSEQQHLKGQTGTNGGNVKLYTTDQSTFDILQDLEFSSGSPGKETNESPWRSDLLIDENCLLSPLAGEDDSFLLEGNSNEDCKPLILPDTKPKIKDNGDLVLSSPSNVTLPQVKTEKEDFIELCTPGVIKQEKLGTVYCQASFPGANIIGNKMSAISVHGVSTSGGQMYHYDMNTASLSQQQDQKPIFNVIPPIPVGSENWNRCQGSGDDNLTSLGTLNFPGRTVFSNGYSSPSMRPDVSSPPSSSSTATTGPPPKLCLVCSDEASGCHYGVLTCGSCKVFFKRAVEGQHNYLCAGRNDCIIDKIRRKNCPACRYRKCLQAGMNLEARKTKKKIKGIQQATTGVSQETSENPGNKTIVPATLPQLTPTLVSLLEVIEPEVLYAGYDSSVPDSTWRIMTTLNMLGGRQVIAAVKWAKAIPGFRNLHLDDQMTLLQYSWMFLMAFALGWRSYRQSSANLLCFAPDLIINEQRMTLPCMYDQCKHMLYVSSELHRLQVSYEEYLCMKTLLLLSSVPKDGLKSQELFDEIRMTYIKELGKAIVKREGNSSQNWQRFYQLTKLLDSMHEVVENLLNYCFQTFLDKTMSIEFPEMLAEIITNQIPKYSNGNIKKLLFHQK

β2AR [4] = target: T1, β2AR (Rattus norvegicus, UniProt P10608); assay: Cyclic AMP accumulation in SPOC1 cells (radioimmunoassay); type: cell-based; design: Because SPOC1 cells express a wild-type β2AR; endogenous in cells; host or cells: SPOC1 rat tracheal epithelial cells
T1 sequence (P10608 whole entry): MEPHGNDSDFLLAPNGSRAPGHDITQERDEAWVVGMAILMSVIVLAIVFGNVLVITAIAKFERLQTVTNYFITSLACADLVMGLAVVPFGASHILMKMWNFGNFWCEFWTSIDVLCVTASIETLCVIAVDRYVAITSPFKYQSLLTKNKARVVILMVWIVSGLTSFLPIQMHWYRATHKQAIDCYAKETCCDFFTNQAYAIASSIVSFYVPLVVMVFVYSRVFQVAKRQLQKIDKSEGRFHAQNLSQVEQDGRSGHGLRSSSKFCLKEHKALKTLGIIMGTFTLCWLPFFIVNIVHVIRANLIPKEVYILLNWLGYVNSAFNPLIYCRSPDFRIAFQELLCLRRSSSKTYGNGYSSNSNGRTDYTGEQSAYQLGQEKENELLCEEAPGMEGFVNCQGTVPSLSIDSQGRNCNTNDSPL
Method: Cyclic AMP accumulation was measured by radioimmunoassay. Significant differences were determined by one way ANOVA and Neuman-Keuls test.
In order to determine if the recombinant β2AR expressed in clonal SPOC1 cells is able to functionally couple to adenylyl cyclase, cyclic AMP radioimmunoassays are performed using lysates. Mock-infected and clonal SPOC1 cells are plated at a density of 100,000 cells/well in 12-well dishes (Costar, Cambridge, Mass.). Cells are treated with adrenergic agonists and the phosphodiesterase inhibitor isobutylmethylxanthine (IBMX) for 10 min. Cellular cyclic AMP levels are determined by radioimmunoassay using the Biotrak CAMP Assay System (Amersham Life Science, Arlington Heights, Ill.). […] These experiments are repeated four times with four different SPOC1 cell platings.

β2AR [5] = target: T1, β2AR; conditions: SPOC1 cell membranes
[6] = target: glucocorticoid receptor (recombinant human GR) (Homo sapiens, UniProt P04150 P04150:1-777); assay: competition; unlabeled competitor did not compete with labeled GRE5 at up to 250-fold excess; conditions: chain copies: 2
Chain of glucocorticoid receptor (recombinant human GR) (P04150 whole entry, one chain of several): as the sequence (P04150 whole entry) above
Method: To further characterize the ability of GRE₅ to bind glucocorticoid receptor in vitro, we performed electrophoretic mobility shift assays with recombinant human glucocorticoid receptor and serial dilutions of various competitor oligonucleotides was performed.

[7] = target: glucocorticoid receptor alpha (expressed from pRShGRalpha) (Homo sapiens, UniProt P04150 P04150:1-777); assay: cell_activity; GRE5-pT81LUC in HepG2, 0.1 uM dexamethasone; conditions: tags: co-transfected expression plasmid pRShGRalpha in HepG2 cells; chain copies: 2; label: 32P
Chain of glucocorticoid receptor alpha (expressed from pRShGRalpha) (P04150 whole entry, the tested form may be a part, one chain of several): as the sequence (P04150 whole entry) above
Excerpt: To further examine the functionality of the putative glucocorticoid response elements, fragments containing either GRE₁, GRE₅, or GRE₂, GRE₃ and GRE₄ together were fused to pT81LUC, a luciferase expression plasmid driven by a minimal thymidine kinase promoter.¹⁰² Sequences of the double stranded oligonucleotides containing GRE₁, GRE₅ and the MMTV GRE are shown in FIG. 10.

Molecule: C[C@@H]1C[C@H]2[C@@H]3CCC4=CC(=O)C=C[C@]4(C)[C@@]3(F)[C@@H](O)C[C@]2(C)[C@@]1(O)C(=O)CO [dexamethasone]
- induction of luciferase activity [1]: approximately 1.5 fold
- induction of luciferase activity (GRE-pT81LUC fusion genes; GRE5-pT81LUC): 3.2 fold
- induction of luciferase activity (GRE-pT81LUC fusion genes; MMTV-pT81LUC fusion gene (positive control)): ~4 fold
- induction in luciferase activity [2]: ~2 fold

Molecule: CCC(NC(C)C)C(O)c1ccc(O)c2[nH]c(=O)ccc12 (stereo not shown) [procaterol]
- effect on mucociliary clearance (mucociliary clearance): no effect

Molecule: MMTV GRE
- activity (fold induction) [3]: 4

Molecule: isobutylmethylxanthine [IBMX]
- Cyclic AMP accumulation (β2AR [4]; 100 μM IBMX, 10 min at 37° C., control 0.27±0.08, statistically insignificant increase): 0.40±0.04 fmol/min/mg protein

Molecule: CC(C)(C)NCC(O)c1cc(O)cc(O)c1 (stereo not shown) [terbutaline]
- effect on mucociliary clearance (mucociliary clearance): increases

Molecule: CC(C)NCC(O)c1ccc(O)c(O)c1 (stereo not shown) [isoproterenol]
- Cyclic AMP production (β2AR [4]): 3.17±0.57 fmol/min/mg protein and 5.95±1.4 fmol/min/mg protein

Molecule: CC(C)(C)NCC(O)COc1cccc2[nH]c(C#N)c(I)c12 (stereo not shown) [[^125I]CYP, [^125I]cyanoiodopindolol]
- binding site concentration (β2AR [5]; [125I]CYP saturation): 60 fmol/mg protein
- Kd (β2AR [5]; read-out: [125I]CYP dissociation constant, 37° C., 2 hour, nonspecific binding 0.1 μM (−)-propranolol, representative Scatchard plot): 0.01 nM

B1: m1GRE5 (core printed only) (dsDNA)
DNA 1: GGGTGAGCTATTCT
DNA 2: AGAATAGCTCACCC
- binding result [6]: no binding

B2: GRE5 (rat beta2AR gene, 35 bp oligonucleotide; core printed only) (dsDNA)
DNA 1: GGGTGAGCTGTTCT
DNA 2: AGAACAGCTCACCC
- activity [7]: 3.2 fold induction
